In patent publication US12077503B2, “Substituted cyclic amides and their use as herbicides” (FMC CORPORATION, priority 2015, dated 2024):

How the values were obtained:
Type in all cases: in vivo
[1] = tested on: barnyardgrass (Echinochloa crus-galli); test: Test A preemergence; settings: Echinochloa crus-galli, pre-emergence, 240 h, preemergence, 0 to 100 scale where 0 is no effect and 100 is complete control, read-out: Barnyardgrass plant response rating; for pest or weed control at 125 g/ha: 125 g ai/ha, approx. 10 d; for pest or weed control at 500 g/ha: 500 g ai/ha
Procedure, shortened: (§1)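 Ratings of 0 (no effect) to 100 (complete control) come from visual comparison with untreated controls roughly 10 d after treatment. Test chemicals, formulated in a non-phytotoxic solvent mixture with surfactant, were applied either as a preemergence directed soil spray on seeded soil or postemergence to one- to two-leaf plants 2 to 10 cm tall.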

rice (Oryra sativa) = test: Test B flooded paddy test; settings: Oryza sativa, 250 g ai/ha, Flood; 0 to 100 scale where 0 is no effect and 100 is complete control; read-out: Rice plant response rating
Procedure, shortened: (§2)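 Visual ratings (0 none to 100 complete control) are relative to untreated plants, taken 13–15 d after treatment in a greenhouse. Test material went straight into floodwater standing 3 cm above the soil, kept constant, on plants at the 2-leaf stage.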

[2] = tested on: barnyardgrass (Echinochloa crus-galli); test: Test B flooded paddy test; settings: Echinochloa crus-galli, 250 g ai/ha, Flood; 0 to 100 scale where 0 is no effect and 100 is complete control; read-out: Barnyardgrass plant response rating
Procedure, shortened: as §2

[3] = tested on: ducksalad (Heteranthera limosa); test: Test B flooded paddy test; settings: Heteranthera limosa, 250 g ai/ha, Flood; 0 to 100 scale where 0 is no effect and 100 is complete control; read-out: Ducksalad plant response rating
Procedure, shortened: as §2

[4] = tested on: sedge, umbrella (small-flower umbrella sedge, Cyperus difformis); test: Test B flooded paddy test; settings: Cyperus difformis, 250 g ai/ha, Flood; 0 to 100 scale where 0 is no effect and 100 is complete control; read-out: Sedge, Umbrella plant response rating
Procedure, shortened: as §2

Kochia (Kochia scoparia) = test: Test A postemergence; settings: Bassia scoparia, post-emergence, 240 h, postemergence; for pest or weed control at 125 g/ha: 125 g ai/ha, visual injury vs untreated controls after approx. 10 d, 0 = no effect, 100 = complete control, read-out: Kochia plant response rating (0 to 100 scale); for pest or weed control at 500 g/ha: 500 g ai/ha, 0 to 100 scale, 0 is no effect, 100 is complete control, read-out: Kochia plant response rating
Procedure, shortened: as §1

[5] = tested on: giant foxtail (Setaria faberii); test: Test A postemergence; settings: Setaria faberi, post-emergence, 240 h, postemergence; for pest or weed control at 125 g/ha: 125 g ai/ha, visual injury vs untreated controls after approx. 10 d, 0 = no effect, 100 = complete control, read-out: Foxtail, Giant plant response rating (0 to 100 scale); for pest or weed control at 500 g/ha: 500 g ai/ha, 0 to 100 scale, 0 is no effect, 100 is complete control, read-out: Foxtail, Giant plant response rating
Procedure, shortened: as §1

[6] = tested on: wheat (Triticum aestivum); test: Test A postemergence; settings: Triticum aestivum, post-emergence, 240 h, postemergence; for plant injury at 125 g/ha: 125 g ai/ha, visual injury vs untreated controls after approx. 10 d, 0 = no effect, 100 = complete control, read-out: Wheat plant response rating (0 to 100 scale); for plant injury at 500 g/ha: 500 g ai/ha, 0 to 100 scale, 0 is no effect, 100 is complete control, read-out: Wheat plant response rating
Procedure, shortened: as §1

[7] = tested on: pigweed (Amaranthus retroflexus); test: Test A postemergence; settings: Amaranthus retroflexus, post-emergence, 240 h, postemergence; for pest or weed control at 125 g/ha: 125 g ai/ha, visual injury vs untreated controls after approx. 10 d, 0 = no effect, 100 = complete control, read-out: Pigweed plant response rating (0 to 100 scale); for pest or weed control at 500 g/ha: 500 g ai/ha, 0 to 100 scale, 0 is no effect, 100 is complete control, read-out: Pigweed plant response rating
Procedure, shortened: as §1

[8] = tested on: barnyardgrass (Echinochloa crus-galli); test: Test A postemergence; settings: Echinochloa crus-galli, post-emergence, 240 h, postemergence; for pest or weed control at 125 g/ha: 125 g ai/ha, visual injury vs untreated controls after approx. 10 d, 0 = no effect, 100 = complete control, read-out: Barnyardgrass plant response rating (0 to 100 scale); for pest or weed control at 500 g/ha: 500 g ai/ha, 0 to 100 scale, 0 is no effect, 100 is complete control, read-out: Barnyardgrass plant response rating
Procedure, shortened: as §1

[9] = tested on: ryegrass, Italian (Italian ryegrass, Lolium multiflorum); test: Test A postemergence; settings: Lolium multiflorum, post-emergence, 240 h, postemergence; for pest or weed control at 125 g/ha: 125 g ai/ha, visual injury vs untreated controls after approx. 10 d, 0 = no effect, 100 = complete control, read-out: Ryegrass, Italian plant response rating (0 to 100 scale); for pest or weed control at 500 g/ha: 500 g ai/ha, 0 to 100 scale, 0 is no effect, 100 is complete control, read-out: Ryegrass, Italian plant response rating
Procedure, shortened: as §1

[10] = tested on: ragweed (common ragweed, Ambrosia elatior); test: Test A postemergence; settings: Ambrosia artemisiifolia, post-emergence, 240 h, postemergence; for pest or weed control at 125 g/ha: 125 g ai/ha, visual injury vs untreated controls after approx. 10 d, 0 = no effect, 100 = complete control, read-out: Ragweed plant response rating (0 to 100 scale); for pest or weed control at 500 g/ha: 500 g ai/ha, 0 to 100 scale, 0 is no effect, 100 is complete control, read-out: Ragweed plant response rating
Procedure, shortened: as §1

[11] = tested on: Galium (catchweed bedstraw, Galium aparine); test: Test A postemergence; settings: Galium, post-emergence, 240 h, postemergence; for pest or weed control at 125 g/ha: 125 g ai/ha, visual injury vs untreated controls after approx. 10 d, 0 = no effect, 100 = complete control, read-out: Galium plant response rating (0 to 100 scale); for pest or weed control at 500 g/ha: 500 g ai/ha, 0 to 100 scale, 0 is no effect, 100 is complete control, read-out: Galium plant response rating
Procedure, shortened: as §1

corn (Zea mays) = test: Test A postemergence; settings: Zea mays, post-emergence, 240 h, postemergence; for plant injury at 125 g/ha: 125 g ai/ha, visual injury vs untreated controls after approx. 10 d, 0 = no effect, 100 = complete control, read-out: Corn plant response rating (0 to 100 scale); for plant injury at 500 g/ha: 500 g ai/ha, 0 to 100 scale, 0 is no effect, 100 is complete control, read-out: Corn plant response rating
Procedure, shortened: as §1

[12] = tested on: blackgrass (Alopecurus myosuroides); test: Test A postemergence; settings: Alopecurus myosuroides, post-emergence, 240 h, postemergence; for pest or weed control at 125 g/ha: 125 g ai/ha, visual injury vs untreated controls after approx. 10 d, 0 = no effect, 100 = complete control, read-out: Blackgrass plant response rating (0 to 100 scale); for pest or weed control at 500 g/ha: 500 g ai/ha, 0 to 100 scale, 0 is no effect, 100 is complete control, read-out: Blackgrass plant response rating
Procedure, shortened: as §1

Row | SMILES | pest or weed control at 125 g/ha [1] [%] | pest or weed control at 500 g/ha [1] [%] | pest or weed control at 250 g/ha (rice (Oryra sativa)) [%] | pest or weed control at 250 g/ha [2] [%] | pest or weed control at 250 g/ha [3] [%] | pest or weed control at 250 g/ha [4] [%] | pest or weed control at 125 g/ha (Kochia (Kochia scoparia)) [%] | pest or weed control at 500 g/ha (Kochia (Kochia scoparia)) [%] | pest or weed control at 125 g/ha [5] [%] | pest or weed control at 500 g/ha [5] [%] | plant injury at 125 g/ha [6] [%] | plant injury at 500 g/ha [6] [%] | pest or weed control at 125 g/ha [7] [%] | pest or weed control at 500 g/ha [7] [%] | pest or weed control at 125 g/ha [8] [%] | pest or weed control at 500 g/ha [8] [%] | pest or weed control at 125 g/ha [9] [%] | pest or weed control at 500 g/ha [9] [%] | pest or weed control at 125 g/ha [10] [%] | pest or weed control at 500 g/ha [10] [%] | further results
1 | CCc1cc([C@H]2CN(C)C(=O)[C@@H]2C(=O)Nc2ccccc2F)cs1 [Compound 1156] | 90 | 90 | 20 | 40 | 100 | 0 | 0 | 20 | 90 | 90 | 20 | 50 | 0 | 0 | 90 | 90 | 20 | 30 | 0 | 0 | pest or weed control at 125 g/ha [11]: 40%; pest or weed control at 500 g/ha [11]: 50%; plant injury at 125 g/ha (corn (Zea mays)): 20%; plant injury at 500 g/ha (corn (Zea mays)): 60%; pest or weed control at 125 g/ha [12]: 0%; pest or weed control at 500 g/ha [12]: 40%
2 | O=C1NCC[C@H](c2cccc(Cl)c2)[C@H]1C(=O)Nc1ccccc1F [Compound 1159] | 60 | 90 | 0 | 0 | 70 | 0 | 0 | 0 | 40 | 70 | 0 | 0 | 0 | 20 | 90 | 90 | 0 | 0 | 0 | 0 | pest or weed control at 125 g/ha [11]: 20%; pest or weed control at 500 g/ha [11]: 20%; plant injury at 125 g/ha (corn (Zea mays)): 0%; plant injury at 500 g/ha (corn (Zea mays)): 20%; pest or weed control at 125 g/ha [12]: 0%; pest or weed control at 500 g/ha [12]: 0%
